# Assay results as given in PMC3221659, “Targeting of Mitochondria-Endoplasmic Reticulum by Fluorescent Macrocyclic Compounds” (PLoS ONE, 2011).
# Key:
# [1] = tested on: human breast cancer cells (MCF-7); assay: MTT cytotoxicity assay, MCF-7; type: cell-based; conditions: MCF-7 cells; for IC50: Homo sapiens, MCF7, MTT, 48 h
# Protocol: (§1) One of the key issues to consider a probe suitable for living cells use is its cellular toxicity. In this context, the cytotoxicity of the five synthesised macrocyclic compounds is assessed by a 3-(4,5-dimethylthiazol-2-yl)-2,5-diphenyltetrazolium bromide (MTT) assay. The cytotoxicity of the starting material 1,10-phenanthroline-2,9-dicarbaldehyde is measured by MTT assay for comparison. In this quantitative colorimetric assay, the amount of MTT reduced by cells to its formazan derivative is quantified spectroscopically at 570 nm and is considered equivalent to the number of viable cells. The cytotoxicity of the referred compounds is evaluated using human breast cancer cells (MCF-7), non-cancerous human dermal fibroblasts (NHDF) and human adult dermal skin fibroblasts (designated P14) obtained from the breast biopsy specimen of a person diagnosed with breast cancer. All cells have been exposed to the six different compounds in five concentrations ranging from 10 nM to 100 µM during a period of exposition of 48 h.
# (§2) Cell viability was studied quantifying the extent of the reduction of 3-(4,5-dimethylthiazol-2-yl)-2,5-diphenyltetrazolium bromide (MTT) according to a previously described procedure. Briefly, cells were seeded in 48-well plates (0.5×10^4 cells/well) in the culture medium containing FBS and after 48 h they were treated with five concentrations (10 nM and 100 nM, 1 µM, 10 µM and 100 µM) of the different compounds for 48 h, with untreated cells serving as control. At the end of incubation the media in wells were removed and replaced with fresh media and MTT solution and incubated at 37°C for 4 h. Thereafter, media-containing MTT were removed and formazan crystals were dissolved and absorbance was recorded in Biorad 550 microplate reader at 570 nm. The extent of cell death was expressed as the percentage of cell viability in comparison with control cells.
# (§3) All experiments were performed in triplicate. The IC50 values were calculated from the obtained dose-response curve by sigmoid fitting. Graphical results of citotoxicity were expressed as the average values ± SEM (standard error of mean). Comparison among multiple groups was analyzed by using a one-way ANOVA followed by Dunnet's post hoc tests to determine significant differences among the means. Difference between groups was considered statistically significant at P<0.05.
# NHDF cells [2] = assay: Annexin V-FITC / PI flow cytometry, NHDF; type: cell-based, human; conditions: 10 µM, 48 h
# Protocol: For this purpose, the fluorescein isothiocyanate (FITC)-conjugated annexin V - PI (propidium iodide) flow cytometry assay is employed, allowing the identification of apoptosis and necrosis. Thus, MCF-7 and NHDF cells are treated with two concentrations (10 nM and 10 µM) of each compound for 48 h. These concentrations are […], except for [32]phen2N4 on MCF-7 cells.
# To detect apoptosis, cells were stained with propidium iodide (PI) and fluorescein isothiocyanate (FITC)-conjugated annexin V using an Annexin V-FITC Apoptosis Detection Kit (BD PharmingenTM). Briefly, cells were seeded in […] flasks in the culture medium containing FBS and after reaching approximated 90% confluence they were treated with two concentrations (10 nM and 10 µM) of each compound for 48 h, with untreated cells serving as control. At the end of incubation, cells were harvested by trypsin-EDTA treatment, washed twice with cold PBS and resuspended with 1× binding buffer (1 mL). […] After the addition of […] of 1× binding buffer, stained cells were subjected to fluorescence-activated cell sorter (FACS) analysis using a FACSCalibur flow cytometer. The FITC fluorescence was measured between 515 and 545 nm and the PI fluorescence between 564 and 606 nm. […]
# [3] = tested on: non-cancerous human dermal fibroblasts (NHDF); assay: MTT cytotoxicity assay, NHDF; type: cell-based; conditions: NHDF cells, 48 h
# Protocol: as §1, with “All cells have been exposed to the six different compounds in five concentrations ranging from 10 nM to 100 µM during a period of exposition of 48 h.” left out
# Cell viability was studied quantifying the extent of the reduction of 3-(4,5-dimethylthiazol-2-yl)-2,5-diphenyltetrazolium bromide (MTT) according to a previously described procedure. […] Thereafter, media-containing MTT were removed and formazan crystals were dissolved and absorbance was recorded in Biorad 550 microplate reader at 570 nm. The extent of cell death was expressed as the percentage of cell viability in comparison with control cells. […]
# [4] = tested on: human adult dermal skin fibroblasts (P14); assay: MTT cytotoxicity assay, P14; type: cell-based; conditions: P14 cells, 48 h; for IC50: Homo sapiens, Skin fibroblast; for reduction in cell viability (approximately 50%): 0.1 µM
# Protocol: as §1, §2, §3
# MCF-7 cells = assay: Mitochondrial membrane potential by flow cytometry (CMXRos / MitoTracker Green), MCF-7; type: cell-based, human; conditions: 10 µM, 48 h
# From the text: (§4) In order to study the effects of the compounds in mitochondrial membrane potential (MMP) of MCF-7 and NHDF cells, flow cytometry assay was employed to monitor any fluorescence changes in MitoTracker Green™ and red fluorescence of chloromethyl-X-rosamine (CMXRos), treatment with the uncoupler 2,4-dinitrophenol (2,4-DNP) to collapse the MMP. While MitoTracker Green™ staining was relatively unaffected by changes in MMP, the CMXRos staining of mitochondria is sensitive to MMP [30]. Also, laser scanning confocal microscopy was employed to analyze changes in mitochondrial localization by treated cells with uncoupler 2,4-DNP and staining with MitoTracker Green™ and compounds.
# (§5) The assessment of mitochondrial membrane potential was determined as described previously. Briefly, the cells were incubated with 200 nM of MitoTracker Green™ and 200 nM of Mitotracker Red (CMXRos) for 30 min prior to harvesting. The 2,4-dinitrophenol (DNP) was used as a mitochondrial uncoupler (300 µM, 2 h). The cells were treated with compounds concentration 10 µM for 48 h. The relative mitochondrial membrane potential was analyzed by flow cytometry by measuring the mean intensity of FL1 (green) and FL4 (red) channels. The FL4/FL1 ratio intensities of compounds treated and positive control (DNP) were compared and indicated if the compounds change the mitochondrial membrane potential of the cells.
# NHDF cells [5] = assay: Mitochondrial membrane potential by flow cytometry (CMXRos / MitoTracker Green), NHDF; type: cell-based, human; conditions: 10 µM, 48 h
# From the text: as §4, §5
# [6] = tested on: MCF-7, NHDF and P14 cells; assay: Fluorescence and confocal microscopy: uptake and sub-cellular localization; type: cell-based, human; conditions: 10 nM and 100 µM over 48 h
# Protocol: The timescale of trafficking of these compounds and their sub-cellular localization have been subsequently examined in MCF-7, NHDF and P14 cells using fluorescence microscopy. The cells are mounting on 0.1 mm thick glass cover slips by withdrawal of the respectively growth medium.
# The incubation times to test the ability compounds to penetrate into cells varied from 5 min to 48 h, and concentrations onto the cells were 10 nM and 100 µM by dissolving in appropriate medium. […] By analyzing each image recorded, all the compounds in all cells rapidly crossed the cell membrane (5 min) and induced a slight stain in the first minutes of incubation, depending on the type of cells. However, for incubation times longer than 30 min, it seems that this difference in the stained disappeared, thus appearing that the compounds were localized into an organelle of the cytoplasm.
# Besides, the subcellular localization of the compounds has been confirmed by co-staining with MitoTracker™ (25 nM, 45 min of incubation) and ER-Tracker™ (100 nM, 30 min of incubation) probes in MCF-7, NHDF and P14 cells, with compound concentrations of 10 nM and 100 nM and for incubation times of 1 h.
# After growth in the glass bottom culture dishes coated with collagen (1×10^4 cells/dish), the cells were incubated in the dark at 37°C with 10 nM of all the compounds and analyzed from 5 min to 48 h. […]
Compound,IC50 [1],percentage of late apoptotic cells (NHDF cells [2]),IC50 [3],IC50 [4],"effect on mitochondrial membrane potential (red fluorescence, FL4/FL1) versus positive control 2,4-DNP (MCF-7 cells)",reduction in cell viability (approximately 50%) [4],"effect on mitochondrial membrane potential (FL4/FL1 ratio) versus positive control 2,4-DNP (NHDF cells [5])",cytotoxicity ([1]; 10 nM to 10 µM),signs of cytotoxicity in microscopy [6]
"O=Cc1ccc2ccc3ccc(C=O)nc3c2n1 [1,10-phen, 1,10-phenanthroline-2,9-dicarbaldehyde, reference compound]",> 100 µM,about 20%,,,,,,,
CN1CCCNCc2cccc(n2)CNCCCN(C)CCCNCc2cccc(n2)CNCCC1 [Me2[28]py2N6],> 100 µM,,69.7 ± 3.02 µM,36.8 ± 4.68 µM,decrease of red fluorescence,,,,
c1cc2ccc3ccc4nc3c2nc1CNCCCCCCNC4 [[16]phenN2],> 100 µM,about 20%,,,decrease of red fluorescence,not observed,modify the MMP,,
c1cc2ccc3ccc4nc3c2nc1CNCCNCCNCc1ccc2ccc3ccc(nc3c2n1)CNCCNCCNC4 [[30]phen2N6],> 100 µM,,,,,,,,
c1cc2ccc3ccc4nc3c2nc1CNCCCCCCNCc1ccc2ccc3ccc(nc3c2n1)CNCCCCCCNC4 [[32]phen2N4],< 0.01 µM,,78.9 ± 2.82 µM,85.3 ± 1.79 µM,,,,highly cytotoxic,no relevant signs of cytotoxicity
c1cc2ccc3ccc4nc3c2nc1CN1CCCCCCN(C4)Cc2ccc3ccc4ccc(nc4c3n2)CN2CCCCCCN(Cc3ccc4ccc5ccc(nc5c4n3)C2)Cc2ccc3ccc4ccc(nc4c3n2)C1 [cryptphen],> 100 µM,,,,,not observed,modify the MMP,,
